# Results as given in patent publication US20240116985A1, “STAPLED PEPTIDES AND METHODS THEREOF” (priority 2020, published 2024).
# Values joined by “and” are separate entries in the source; they are usually repeats but may differ in a detail not shown here. Equal entries are not always repeated. Where two headings read alike, the source gives them in different places.
# What was measured:
# CHI Log D procedure = format: physicochemical; details: for chromatographic logD: pH 7.4, CHI Log D
# [1] = system: TCF/LEF luciferase Reporter in DLD1 cells; assay: TCF reporter assay (DLD1 TCF/LEF luciferase reporter, Bright-Glo); format: cell-based; details: for DLD1 TCF c2 BrightGlo % Inhibition: replicates
# How it was run: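 DLD1 cells stably carrying a TCF/LEF luciferase reporter were plated at 5000 cells/well in RPMI + 4% FBS and treated overnight with a 1:2 compound dilution series. Bright-Glo luminescence read on day 3; viability by CellTiter-Glo. Absolute IC50 determined.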
# [2] = target: T1, full-length beta-Catenin (Uniprot ID P35222) (Homo sapiens, UniProt P35222); assay: Fluorescence polarization IC50 (beta-catenin / 5FAM-TCF4 10-53 competition); format: binding
# T1 construct: 10 nM full-length beta-Catenin (Uniprot ID P35222)
# T1 sequence (P35222 1-781): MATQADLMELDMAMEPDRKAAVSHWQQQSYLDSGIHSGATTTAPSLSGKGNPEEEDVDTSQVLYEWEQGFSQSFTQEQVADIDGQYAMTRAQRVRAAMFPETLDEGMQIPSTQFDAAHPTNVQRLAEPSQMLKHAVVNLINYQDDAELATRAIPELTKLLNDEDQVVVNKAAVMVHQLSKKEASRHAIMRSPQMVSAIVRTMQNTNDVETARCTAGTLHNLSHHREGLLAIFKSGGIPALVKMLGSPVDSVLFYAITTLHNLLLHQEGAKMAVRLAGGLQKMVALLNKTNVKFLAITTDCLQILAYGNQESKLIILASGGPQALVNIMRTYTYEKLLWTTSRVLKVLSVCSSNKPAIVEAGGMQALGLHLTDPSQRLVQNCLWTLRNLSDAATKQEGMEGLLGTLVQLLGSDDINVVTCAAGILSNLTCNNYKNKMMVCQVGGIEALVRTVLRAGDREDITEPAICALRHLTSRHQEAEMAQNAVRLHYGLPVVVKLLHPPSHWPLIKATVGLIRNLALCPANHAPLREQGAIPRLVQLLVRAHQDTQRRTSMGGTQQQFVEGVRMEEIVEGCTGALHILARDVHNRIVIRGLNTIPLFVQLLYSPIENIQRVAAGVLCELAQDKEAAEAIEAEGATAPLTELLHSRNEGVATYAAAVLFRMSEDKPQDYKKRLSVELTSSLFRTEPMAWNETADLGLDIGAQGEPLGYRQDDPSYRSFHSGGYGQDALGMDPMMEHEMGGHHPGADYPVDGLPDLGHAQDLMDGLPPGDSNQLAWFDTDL
# Solubility in PBS = format: physicochemical
# How it was run: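 HPLC quantitation of peptide remaining in the PBS supernatant after ultracentrifugation, referenced to a 50 μM solution in DMSO.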
# [3] = target: T2, beta-catenin/TCF4 engagement (Homo sapiens, UniProt P35222); assay: Nano-BRET target engagement assay (B-cat-Halo & TCF4-Luc in HEK293 cells); format: cell-based; details: absolute IC50; read-out: NanoBRET Abs IC50
# T2 construct: expressed in transfected cells; host or cells: HEK293
# T2 sequence (P35222 1-781): T1 sequence (P35222 1-781)
# [4] = absolute IC50, read-out: DLD1 reporter assay Abs IC50
# [5] = first dose = 20 uM (plate map), 20 µM
# [6] = read-out: DLD1 4% Abs IC50, DLD1 4%
# [7] = third dose = 5 uM (plate map), 5 µM
smiles,measurement,setting,value
"CC(=O)N1CCC[C@]12CC=CCCCC1(CCCC=CCCCCCC[C@@](C)(C(=O)N[C@@H](Cc3ccccc3Cl)C(=O)N[C@@H](Cc3csc4ccccc34)C(=O)N[C@@H](CCO)C(N)=O)NC(=O)[C@H](CCO)NC(=O)[C@H](Cc3ccccc3)NC(=O)[C@H](C)NC(=O)[C@H](C)NC(=O)[C@H](CN(CC(=O)O)CC(F)(F)F)NC(=O)[C@H](CC(=O)O)NC1=O)NC(=O)[C@H](CC(C)(C)C)NC(=O)[C@H](CC(=O)O)NC2=O (stereo partly drawn) [I-1000, Ac-PL3-Asp-Npg-B5-Asp-TfeGA-Ala-Ala-Phe-Hse-S8-2C1F-BztA-Hse-NH2]",chromatographic logD,CHI Log D procedure,2.97
same,IC50,[1]; [4],8 µM
same,DLD1 TCF c2 BrightGlo % Inhibition,[1]; [5],79.5% (2×) and 79.7%
same,IC50,[1]; [6],1.9 µM
same,DLD1 TCF c2 BrightGlo % Inhibition,[1]; 0.625 µM,−3.4% and 2.4% and 4.9%
same,DLD1 TCF c2 BrightGlo % Inhibition,[1]; 1.25 µM,−0.6% and −1.2% and 1.5%
same,DLD1 TCF c2 BrightGlo % Inhibition,[1]; 2.5 µM,5.5% and 10.2% and 12.4%
same,DLD1 TCF c2 BrightGlo % Inhibition,[1]; 10 µM,57.0% and 59.8% and 61.4%
same,DLD1 TCF c2 BrightGlo % Inhibition,[1]; [7],25.7% and 29.9% and 32.3%
same,IC50,[2]; read-out: beta-Catenin FP IC50,0.018 µM
same,Solubility,Solubility in PBS; Solubility (uM),44 µM
same,IC50,[3],23.9 µM
"CC(=O)N1CCC[C@]12CC=CCCCC1(CCCC=CCCCOC(=O)N3CC[C@@](C(=O)N[C@@H](Cc4ccccc4Cl)C(=O)N[C@@H](Cc4csc5ccccc45)C(=O)N[C@@H](CO)C(N)=O)(C3)NC(=O)[C@H](CO)NC(=O)[C@H](Cc3ccccc3)NC(=O)[C@H](C)NC(=O)[C@H](C)NC(=O)[C@H](CC(=O)O)NC(=O)[C@H](CC(=O)O)NC1=O)NC(=O)[C@H](Cc1ccccc1)NC(=O)[C@H](CC(=O)O)NC2=O (stereo partly drawn) [I-1051, Ac-PL3-Asp-Phe-B5-Asp-Asp-Ala-Ala-Phe-Ser-PyrS2-2C1F-BztA-Ser-NH2]",chromatographic logD,CHI Log D procedure,2.23
same,IC50,[1]; [4],> 20 µM
same,DLD1 TCF c2 BrightGlo % Inhibition,[1]; [5],20.2% and 21.7% and 24.7%
same,DLD1 TCF c2 BrightGlo % Inhibition,[1]; 0.625 µM,−1.7% and −3.4% and 0.0%
same,DLD1 TCF c2 BrightGlo % Inhibition,[1]; 1.25 µM,−12.2% and −5.2% and −3.8%
same,DLD1 TCF c2 BrightGlo % Inhibition,[1]; 2.5 µM,−12.5% and −11.1% and −13.2%
same,DLD1 TCF c2 BrightGlo % Inhibition,[1]; 10 µM,3.9% and 5.0% and −0.5%
same,DLD1 TCF c2 BrightGlo % Inhibition,[1]; [7],−4.1% and −5.0% and −11.4%
same,IC50,[2]; read-out: beta-Catenin FP IC50,0.014 µM
same,Solubility,Solubility in PBS; Solubility (uM),48 µM
same,IC50,[3],> 20 µM
"CC(=O)N1CCC[C@]12CC=CCCCC1(CCCC=CCCCOC(=O)N3CC[C@@](C(=O)N[C@@H](Cc4ccccc4Cl)C(=O)N[C@@H](Cc4csc5ccccc45)C(=O)N[C@@H](C(N)=O)[C@H](C)O)(C3)NC(=O)[C@H](Cc3ccccc3)NC(=O)[C@H](Cc3ccccc3)NC(=O)[C@H](C)NC(=O)[C@H](C)NC(=O)[C@H](CC(=O)O)NC(=O)[C@H](CC(=O)O)NC1=O)NC(=O)[C@H](CC(C)(C)C)NC(=O)[C@H](CC(=O)O)NC2=O (stereo partly drawn) [I-1034, Ac-PL3-Asp-Npg-B5-Asp-Asp-Ala-Ala-Phe-Phe-PyrS2-2C1F-BztA-dThr-NH2]",chromatographic logD,CHI Log D procedure,2.71
same,IC50,[1]; [4],11.9 µM
same,IC50,[1]; [6],4 µM
same,IC50,[2]; read-out: beta-Catenin FP IC50,0.027 µM
same,Solubility,Solubility in PBS; Solubility (uM),12 µM
same,IC50,[3],9.5 µM
"CC(=O)N1CCC[C@]12CC=CCCCC1(CCCC=CCCCOC(=O)N3CC[C@@](C(=O)N[C@@H](Cc4ccccc4C(F)(F)F)C(=O)N[C@@H](Cc4csc5ccccc45)C(=O)N[C@@H](CCC(N)=O)C(N)=O)(C3)NC(=O)[C@H](Cc3ccccc3)NC(=O)[C@H](Cc3ccccc3)NC(=O)[C@H](C)NC(=O)[C@H](C)NC(=O)[C@H](CC(=O)O)NC(=O)[C@H](CC(=O)O)NC1=O)NC(=O)[C@H](CC(C)(C)C)NC(=O)[C@H](CC(=O)O)NC2=O (stereo partly drawn) [I-1319, Ac-PL3-Asp-Npg-B5-Asp-Asp-Ala-Ala-Phe-Phe-PyrS2-2F3MeF-BztA-Gln-NH2]",IC50,"[1]; read-out: DLD1 4% Abs IC50, DLD1 reporter, 4%, absolute IC50",2.1 µM
same,IC50,"[2]; fluorescence polarization, read-out: beta-Catenin FP IC50",0.01 µM
same,Solubility,Solubility in PBS,10 µM
same,IC50,[3],4.2 µM
"CCN(CC(=O)O)C[C@@H]1NC(=O)[C@H](CC(=O)O)NC(=O)C2(CCCC=CCCCOC(=O)N3CC[C@@](C(=O)N[C@@H](Cc4ccsc4)C(=O)N[C@@H](Cc4csc5ccccc45)C(=O)N[C@@H](CCC(N)=O)C(N)=O)(C3)NC(=O)[C@H](CC(C)C)NC(=O)[C@H](Cc3ccccc3)NC(=O)[C@H](C)NC(=O)[C@H](C)NC1=O)CCCC=CC[C@]1(CCCN1C(C)=O)C(=O)N[C@@H](CC(=O)O)C(=O)N[C@@H](CC(C)(C)C)C(=O)N2 (stereo partly drawn) [I-973, Ac-PL3-Asp-Npg-B5-Asp-EtGA-Ala-Ala-Phe-Leu-PyrS2-3Thi-BztA-Gln-NH2]",CHI Log D,CHI Log D procedure; pH 7.4,1.95
same,IC50,[1]; [6],10.1 µM
same,IC50,"[2]; fluorescence polarization, beta-catenin, read-out: FP EC50",1.38 µM
same,IC50,[2]; read-out: beta-Catenin FP IC50,0.009 µM
same,Solubility,Solubility in PBS,10 µM
